How the values were obtained:
[1] = system: Human betaherpesvirus 5; test: In vitro effective concentration required to inhibit AD169 strain of human cytomegalovirus (HCMV) replication in HFF cell line; assay type: functional, organism-based; conditions: Human betaherpesvirus 5, HFF
[2] = system: Human gammaherpesvirus 4; test: In vitro cytotoxic concentration required to inhibit Epstein-Barr virus (EBV) replication in Daudi cells; assay type: functional; conditions: human gammaherpesvirus 4, Daudi
[3] = system: Human gammaherpesvirus 4; test: In vitro effective concentration required to inhibit Epstein-Barr virus (EBV) replication in H-1 cell line; assay type: functional, organism-based; conditions: human gammaherpesvirus 4, H-1
[4] = system: Human gammaherpesvirus 4; test: In vitro effective concentration required to inhibit Epstein-Barr virus (EBV) replication in Daudi cells; assay type: functional, organism-based; conditions: human gammaherpesvirus 4, Daudi
[5] = system: Hepatitis B virus; test: In vitro effective concentration required to inhibit hepatitisB virus (HBV) replication in 2.2.15 cell line; assay type: functional, organism-based
[6] = system: MEF; test: In vitro effective concentration required to inhibit murine cytomegalovirus (MCMV) replication in MEF cell line; assay type: functional, cell-based; conditions: Mus musculus
[7] = system: HFF; test: In vitro cytotoxic concentration required to inhibit AD169 strain of human cytomegalovirus (HCMV) replication in HFF cell line; assay type: functional
[8] = system: Murid betaherpesvirus 1; test: In vitro cytotoxic concentration required to inhibit murine cytomegalovirus (MCMV) replication in MEF cell line; assay type: functional
[9] = system: Human betaherpesvirus 5; test: In vitro effective concentration required to inhibit towne strain of human cytomegalovirus (HCMV) replication in HFF cell line; assay type: functional, organism-based; conditions: Human betaherpesvirus 5, HFF
[10] = system: HepG2; test: In vitro cytotoxic concentration required to inhibit hepatitisB virus (HBV) replication in 2.2.15 cell line; assay type: functional; conditions: Homo sapiens
[11] = system: Human betaherpesvirus 5; test: In vitro cytotoxic concentration required to inhibit towne strain of human cytomegalovirus (HCMV) replication in HFF cell line; assay type: functional; conditions: Human betaherpesvirus 5, HFF
[12] = system: Human alphaherpesvirus 3; test: In vitro effective concentration required to inhibit varicella zoster virus (VZV) replication in HFF cell line; assay type: functional, organism-based; conditions: Human alphaherpesvirus 3, HFF
[13] = system: HFF; test: In vitro effective concentration required to inhibit varicella zoster virus (VZV) replication in HFF cell line by plaque reduction assay; assay type: functional, cell-based; conditions: Homo sapiens

Compound	EC50 [1]	CC50 [2]	EC50 [3]	EC50 [4]	EC50 [5]	EC50 [6]	CC50 [7]	CC50 ([8]; Murid betaherpesvirus 1, MEF)	EC50 [9]	CC50 [10]	CC50 [11]	EC50 [12]	CC50 [8]	EC50 [13]
Nc1nc2c(ncn2/C=C2/CC2(CO)CO)c(=O)[nH]1 [FILOCICLOVIR]	0.49 µM	74 µM	7 µM	45 µM	> 10 µM	0.27 µM	> 380 µM	> 380 µM	0.46 µM	> 50 µM	> 100 µM	> 380 µM	–	–
Nc1ncnc2c1ncn2/C=C1/CC1(CO)CO	11.7 µM	> 202 µM	16 µM	166 µM	> 10 µM	9.7 µM	> 404 µM	> 404 µM	3.6 µM	> 50 µM	100 µM	> 404 µM	–	–
COc1nc(N)nc2c1ncn2C=C1CC1(CO)CO [listing 1 of 3 here]	> 361 µM	> 180 µM	> 20 µM	> 180 µM	> 20 µM	–	> 361 µM	–	> 100 µM	> 100 µM	> 100 µM	322 µM	–	–
COc1nc(N)nc2c1ncn2C=C1CC1(CO)CO [listing 2 of 3 here]	–	–	–	–	–	–	–	–	–	–	–	–	Not toxic	–
Nc1nc(F)c2ncn(C=C3CC3(CO)CO)c2n1 [listing 1 of 2 here]	43.7 µM	> 189 µM	18.5 µM	> 189 µM	0.02 µM	18.9 µM	> 337 µM	176 µM	33 µM	> 100 µM	> 100 µM	31.7 µM	–	180 µM
Nc1nc(N)c2ncn(C=C3CC3(CO)CO)c2n1 [listing 1 of 3 here]	> 381 µM	> 191 µM	> 20 µM	> 191 µM	4 µM	–	> 381 µM	–	15 µM	48 µM	> 100 µM	8.4 µM	–	38.9 µM
Nc1nc2c(ncn2COC(CO)CO)c(=O)[nH]1 [GANCICLOVIR]	2.3 µM	–	–	–	–	5 µM	> 392 µM	> 35 µM	4.1 µM	–	> 100 µM	–	–	–
Nc1ccn(/C=C2\CC2(CO)CO)c(=O)n1	> 448 µM	> 224 µM	> 20 µM	152 µM	> 10 µM	–	> 448 µM	–	> 100 µM	> 50 µM	> 100 µM	> 448 µM	–	–
Nc1nc(NC2CC2)c2ncn(/C=C3\CC3(CO)CO)c2n1	327 µM	> 165 µM	> 20 µM	0.3 µM	> 20 µM	–	> 331 µM	–	> 100 µM	> 100 µM	> 100 µM	> 331 µM	–	–
Nc1nc(Cl)c2ncn(C=C3CC3(CO)CO)c2n1 [listing 1 of 2 here]	> 355 µM	> 178 µM	16.4 µM	> 178 µM	> 20 µM	–	> 355 µM	–	> 100 µM	23.6 µM	> 100 µM	> 71 µM	–	–
COc1nc(N)nc2c1ncn2C=C1CC1(CO)CO [listing 3 of 3 here]	2.7 µM	> 180 µM	4.8 µM	161 µM	> 20 µM	2 µM	> 361 µM	> 361 µM	3.5 µM	90 µM	> 100 µM	11.2 µM	–	3.3 µM
Nc1nc(F)c2ncn(C=C3CC3(CO)CO)c2n1 [listing 2 of 2 here]	22.2 µM	> 189 µM	20.8 µM	> 189 µM	> 20 µM	18.9 µM	> 377 µM	176 µM	38 µM	56.4 µM	> 100 µM	41.8 µM	–	50.1 µM
Nc1nc(Cl)c2ncn(C=C3CC3(CO)CO)c2n1 [listing 2 of 2 here]	> 355 µM	> 178 µM	16.4 µM	142 µM	> 20 µM	–	> 301 µM	–	> 100 µM	11.6 µM	> 100 µM	> 71 µM	–	–
Cc1cn(/C=C2/CC2(CO)CO)c(=O)[nH]c1=O	> 420 µM	> 210 µM	19 µM	4.6 µM	> 10 µM	–	> 420 µM	–	> 100 µM	> 50 µM	> 100 µM	> 420 µM	–	–
Nc1nc2c(ncn2/C=C2\CC2(CO)CO)c(=O)[nH]1	120 µM	> 190 µM	> 20 µM	119 µM	> 20 µM	42 µM	> 380 µM	> 380 µM	39 µM	> 50 µM	> 100 µM	> 357 µM	–	–
Nc1nc(N)c2ncn(C=C3CC3(CO)CO)c2n1 [listing 2 of 3 here]	–	–	–	–	–	–	–	–	–	–	–	–	Not toxic	–
Nc1nc(N)c2ncn(C=C3CC3(CO)CO)c2n1 [listing 3 of 3 here]	313 µM	191 µM	> 20 µM	< 0.31 µM	> 20 µM	–	> 381 µM	–	> 100 µM	> 100 µM	> 100 µM	270 µM	–	–
Cc1cn(/C=C2\CC2(CO)CO)c(=O)[nH]c1=O	> 420 µM	> 210 µM	> 20 µM	178 µM	> 10 µM	–	> 420 µM	–	> 100 µM	> 50 µM	> 100 µM	> 420 µM	–	–
Nc1ccn(/C=C2/CC2(CO)CO)c(=O)n1	14.3 µM	70 µM	> 20 µM	> 45 µM	> 10 µM	54 µM	> 448 µM	> 448 µM	32 µM	> 50 µM	> 100 µM	> 448 µM	–	–
Nc1ncnc2c1ncn2/C=C1\CC1(CO)CO	> 404 µM	> 202 µM	> 20 µM	132 µM	> 10 µM	–	> 404 µM	–	> 100 µM	> 50 µM	> 100 µM	11.7 µM	–	44.9 µM
Nc1nc(NC2CC2)c2ncn(/C=C3/CC3(CO)CO)c2n1	255 µM	> 165 µM	> 20 µM	> 165 µM	> 20 µM	–	> 331 µM	–	> 100 µM	> 100 µM	> 100 µM	> 66 µM	–	–

From ChEMBL document CHEMBL1137080, “Synthesis and antiviral activity of (Z)- and (E)-2,2-[bis(hydroxymethyl)cyclopropylidene]methylpurines and -pyrimidines: second-generation methylenecyclopropane analogues of nucleosides” (J Med Chem, 2004)
